How the values were obtained:
[1] = tested on: ABUTH; test: Pre-emergence herbicidal action against ABUTH; format: in vivo, Abutilon theophrasti
Method in brief: (§1)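 Pre-emergence soil-surface spray of formulated compound (WP or EC; 600 to 800 l/ha; 0.2% wetting agent) over seeds sown in sandy loam. After 3 weeks under greenhouse conditions, damage is estimated visually in percent against untreated plants.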

[2] = tested on: ALOMY; test: Pre-emergence herbicidal action against ALOMY; format: in vivo, Alopecurus myosuroides
Method in brief: as §1

[3] = tested on: AMARE; test: Pre-emergence herbicidal action against AMARE; format: in vivo, Amaranthus retroflexus
Method in brief: as §1

[4] = tested on: AVEFA; test: Pre-emergence herbicidal action against AVEFA; format: in vivo, Avena fatua; conditions: for Pre-emergence action against AVEFA in %: 80 g/ha
Method in brief: as §1

[5] = tested on: ECHCG; test: Pre-emergence herbicidal action against ECHCG; format: in vivo, Echinochloa crus-galli
Method in brief: as §1

[6] = tested on: LOLRI; test: Pre-emergence herbicidal action against LOLRI; format: in vivo, Lolium rigidum; conditions: 80 g/ha
Method in brief: as §1

[7] = tested on: MATIN; test: Pre-emergence herbicidal action against MATIN; format: in vivo, Matricaria inodora
Method in brief: as §1

[8] = tested on: PHBPU; test: Pre-emergence herbicidal action against PHBPU; format: in vivo, Pharbitis purpurea
Method in brief: as §1

[9] = tested on: POLCO; test: Pre-emergence herbicidal action against POLCO; format: in vivo, Polygonum convolvulus; conditions: dosage 80 g/ha
Method in brief: as §1

[10] = tested on: SETVI; test: Pre-emergence herbicidal action against SETVI; format: in vivo, Setaria viridis
Method in brief: as §1

[11] = tested on: VERPE; test: Pre-emergence herbicidal action against VERPE; format: in vivo, Veronica persica
Method in brief: as §1

[12] = tested on: VIOTR; test: Pre-emergence herbicidal action against VIOTR; format: in vivo, Viola tricolor
Method in brief: as §1

[13] = tested on: DIGSA; test: Pre-emergence herbicidal action against DIGSA; format: in vivo, Digitaria sanguinalis
Method in brief: as §1

[14] = tested on: ABUTH; test: Post-emergence herbicidal action against ABUTH; format: in vivo, Abutilon theophrasti; conditions: visual assessment about 3 weeks after treatment vs untreated controls
Method in brief: (§2)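 Greenhouse plants in sandy loam were sprayed at the one-leaf stage, 2 to 3 weeks after sowing, with WP or EC formulations as aqueous suspension or emulsion (600 to 800 l/ha water, 0.2% wetting agent). Visual damage was scored about 3 weeks later versus untreated controls, 0% = like control, 100% = dead.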

[15] = tested on: ALOMY; test: Post-emergence herbicidal action against ALOMY; format: in vivo, Alopecurus myosuroides; conditions: visual assessment about 3 weeks after treatment vs untreated controls
Method in brief: as §2

[16] = tested on: AMARE; test: Post-emergence herbicidal action against AMARE; format: in vivo, Amaranthus retroflexus; conditions: 20 g/ha, visual assessment about 3 weeks after treatment, 100% = plants have died, 0% = like control plants
Method in brief: as §2

[17] = tested on: ECHCG; test: Post-emergence herbicidal action against ECHCG; format: in vivo, Echinochloa crus-galli
Method in brief: as §2

[18] = tested on: MATIN; test: Post-emergence herbicidal action against MATIN; format: in vivo, Matricaria inodora
Method in brief: as §2

[19] = tested on: PHBPU; test: Post-emergence herbicidal action against PHBPU; format: in vivo, Pharbitis purpurea
Method in brief: as §2

[20] = tested on: VERPE; test: Post-emergence herbicidal action against VERPE; format: in vivo, Veronica persica
Method in brief: as §2

[21] = tested on: VIOTR; test: Post-emergence herbicidal action against VIOTR; format: in vivo, Viola tricolor
Method in brief: as §2

[22] = tested on: SETVI; test: Post-emergence herbicidal action against SETVI; format: in vivo, Setaria viridis
Method in brief: as §2

[23] = tested on: DIGSA; test: Post-emergence herbicidal action against DIGSA; format: in vivo, Digitaria sanguinalis
Method in brief: as §2

[24] = 80 g/ha, scored visually after 3 weeks vs untreated controls (100% = plants have died, 0% = like control plants)
[25] = dosage 20 g/ha, scored visually after 3 weeks vs untreated controls, 100% = plants have died, 0% = like control plants
[26] = 20 g/ha, scored visually after 3 weeks, 100% = plants have died, 0% = like control plants
[27] = 80 g/ha, pre-emergence, scored visually after 3 weeks vs untreated controls (100% = plants have died, 0% = like control plants)
[28] = 20 g/ha, scored visually after 3 weeks vs untreated controls, 100% = plants have died, 0% = like control plants
[29] = Tripleurospermum inodorum, 504 h, dosage 20 g/ha

## CCn1nnnc1NC(=O)c1ccc(C(F)(F)F)c(C(=O)NC2CCC2)c1C [Example 2-42]
[1]; [24]
  Pre-emergence action against ABUTH (herbicidal activity): 100%
[1]; [25]
  Pre-emergence action against ABUTH (herbicidal activity in percent): 100%
[2]; [26]
  Pre-emergence action against ALOMY: 80%
[2]; [27]
  Pre-emergence action against ALOMY (herbicidal activity): 90%
[3]; [28]
  Pre-emergence action against AMARE in %: 100%
[3]; [24]
  Pre-emergence action against AMARE in %: 100%
[4]; [26]
  Pre-emergence action against AVEFA: 80%
[4]
  Pre-emergence action against AVEFA in %: 90%
[5]; 20 g/ha
  Pre-emergence action against ECHCG in %: 90%
[5]; 80 g/ha
  Pre-emergence action against ECHCG in %: 100%
[6]
  Pre-emergence action against LOLRI in %: 80%
[7]; dosage 20 g/ha
  Pre-emergence action against MATIN in %: 100%
[7]; dosage 80 g/ha
  Pre-emergence action against MATIN in %: 100%
[8]; dosage 20 g/ha
  Pre-emergence action against PHBPU in %: 80%
[8]; dosage 80 g/ha
  Pre-emergence action against PHBPU in %: 90%
[9]
  Pre-emergence action against POLCO in %: 80%
[10]; dosage 20 g/ha
  Pre-emergence action against SETVI in %: 80%
[10]; dosage 80 g/ha
  Pre-emergence action against SETVI in %: 100%
[11]; dosage 80 g/ha
  Pre-emergence action against VERPE in %: 90%
[12]; dosage 20 g/ha
  Pre-emergence action against VIOTR in %: 100%
[12]; dosage 80 g/ha
  Pre-emergence action against VIOTR in %: 100%
[13]; dosage 20 g/ha
  Pre-emergence action against DIGSA in %: 100%
[13]; dosage 80 g/ha
  Pre-emergence action against DIGSA in %: 100%
[14]; dosage 5 g/ha
  Post-emergence action against ABUTH in %: 80%
[14]; dosage 20 g/ha
  Post-emergence action against ABUTH in %: 90%
[15]; dosage 5 g/ha
  Post-emergence action against ALOMY in %: 90%
[15]; dosage 20 g/ha
  Post-emergence action against ALOMY in %: 100%
[16]
  Post-emergence action at 20 g/ha against AMARE in %: 100%
[17]; dosage 5 g/ha
  Post-emergence action against ECHCG in %: 90%
[17]; dosage 20 g/ha
  Post-emergence action against ECHCG in %: 100%
[18]; dosage 20 g/ha
  Post-emergence action against MATIN in %: 80%
[19]; dosage 5 g/ha
  Post-emergence action against PHBPU in %: 90%
[19]; dosage 20 g/ha
  Post-emergence action against PHBPU in %: 90%
[20]; 20 g/ha
  Post-emergence action against VERPE in %: 90%

## CCCNC(=O)c1c(C(F)(F)F)ccc(C(=O)Nc2nnnn2C)c1C [Example 1-32]
[1]; Abutilon theophrasti, 504 h, 80 g/ha, scored visually after 3 weeks vs untreated controls (100% = plants have died, 0% = like control plants)
  pest or weed control at 80 g/ha: 100%
[1]; Abutilon theophrasti, 504 h, dosage 20 g/ha, scored visually after 3 weeks vs untreated controls, 100% = plants have died, 0% = like control plants, read-out: Pre-emergence action against ABUTH (herbicidal activity in percent)
  pest or weed control at 20 g/ha: 100%
[2]; Alopecurus myosuroides, 504 h, 80 g/ha, pre-emergence, scored visually after 3 weeks vs untreated controls (100% = plants have died, 0% = like control plants)
  pest or weed control at 80 g/ha: 100%
[2]; Alopecurus myosuroides, pre-emergence, 504 h, 20 g/ha, scored visually after 3 weeks, 100% = plants have died, 0% = like control plants
  pest or weed control at 20 g/ha: 80%
[3]; Amaranthus retroflexus, 504 h, 20 g/ha, scored visually after 3 weeks vs untreated controls, 100% = plants have died, 0% = like control plants
  pest or weed control at 20 g/ha: 100%
[3]; Amaranthus retroflexus, 504 h, 80 g/ha, scored visually after 3 weeks vs untreated controls, 100% = plants have died, 0% = like control plants
  pest or weed control at 80 g/ha: 100%
[5]; Echinochloa crus-galli, 504 h, 20 g/ha
  pest or weed control at 20 g/ha: 80%
[5]; Echinochloa crus-galli, 504 h, 80 g/ha
  pest or weed control at 80 g/ha: 100%
[6]; Lolium rigidum, 504 h
  pest or weed control at 80 g/ha: 90%
[7]; [29]
  pest or weed control at 20 g/ha: 100%
[7]; Tripleurospermum inodorum, 504 h, dosage 80 g/ha
  pest or weed control at 80 g/ha: 100%
[8]; Ipomoea purpurea, 504 h, dosage 80 g/ha
  pest or weed control at 80 g/ha: 80%
[9]; Fallopia convolvulus, 504 h
  pest or weed control at 80 g/ha: 100%
[10]; Setaria viridis, 504 h, dosage 80 g/ha
  pest or weed control at 80 g/ha: 100%
[11]; Veronica persica, 504 h, dosage 20 g/ha
  pest or weed control at 20 g/ha: 80%
[11]; Veronica persica, 504 h, dosage 80 g/ha
  pest or weed control at 80 g/ha: 100%
[12]; Viola tricolor, 504 h, dosage 80 g/ha
  pest or weed control at 80 g/ha: 100%
[13]; Digitaria sanguinalis, 504 h, dosage 20 g/ha
  pest or weed control at 20 g/ha: 100%
[13]; Digitaria sanguinalis, 504 h, dosage 80 g/ha
  pest or weed control at 80 g/ha: 100%
[14]; Abutilon theophrasti, 504 h, dosage 5 g/ha
  pest or weed control at 5 g/ha: 90%
[14]; Abutilon theophrasti, 504 h, dosage 20 g/ha
  pest or weed control at 20 g/ha: 90%
[15]; Alopecurus myosuroides, 504 h, dosage 5 g/ha
  pest or weed control at 5 g/ha: 80%
[15]; Alopecurus myosuroides, 504 h, dosage 20 g/ha
  pest or weed control at 20 g/ha: 90%
[16]; Amaranthus retroflexus, 504 h
  pest or weed control at 20 g/ha: 90%
[17]; Echinochloa crus-galli, 504 h, dosage 20 g/ha
  pest or weed control at 20 g/ha: 90%
[18]; Tripleurospermum inodorum, 504 h, dosage 5 g/ha
  pest or weed control at 5 g/ha: 80%
[18]; [29]
  pest or weed control at 20 g/ha: 90%
[20]; Veronica persica, 504 h, 20 g/ha
  pest or weed control at 20 g/ha: 90%
[21]; Viola tricolor, 504 h, 20 g/ha
  pest or weed control at 20 g/ha: 80%

## Cn1nnnc1NC(=O)c1ccc(C(F)(F)F)c(C(=O)NCC2CC2)c1C1CC1 [Example 1-289]
[1]; [24]
  Pre-emergence action against ABUTH (herbicidal activity): 100%
[1]; [25]
  Pre-emergence action against ABUTH (herbicidal activity in percent): 100%
[2]; [27]
  Pre-emergence action against ALOMY (herbicidal activity): 90%
[3]; [28]
  Pre-emergence action against AMARE in %: 90%
[3]; [24]
  Pre-emergence action against AMARE in %: 100%
[4]
  Pre-emergence action against AVEFA in %: 80%
[5]; 20 g/ha
  Pre-emergence action against ECHCG in %: 80%
[5]; 80 g/ha
  Pre-emergence action against ECHCG in %: 100%
[6]
  Pre-emergence action against LOLRI in %: 80%
[7]; dosage 20 g/ha
  Pre-emergence action against MATIN in %: 90%
[7]; dosage 80 g/ha
  Pre-emergence action against MATIN in %: 100%
[8]; dosage 80 g/ha
  Pre-emergence action against PHBPU in %: 80%
[9]
  Pre-emergence action against POLCO in %: 80%
[10]; dosage 80 g/ha
  Pre-emergence action against SETVI in %: 80%
[11]; dosage 80 g/ha
  Pre-emergence action against VERPE in %: 100%
[12]; dosage 20 g/ha
  Pre-emergence action against VIOTR in %: 100%
[12]; dosage 80 g/ha
  Pre-emergence action against VIOTR in %: 100%
[13]; dosage 20 g/ha
  Pre-emergence action against DIGSA in %: 100%
[13]; dosage 80 g/ha
  Pre-emergence action against DIGSA in %: 100%
[14]; dosage 5 g/ha
  Post-emergence action against ABUTH in %: 80%
[14]; dosage 20 g/ha
  Post-emergence action against ABUTH in %: 80%
[16]
  Post-emergence action at 20 g/ha against AMARE in %: 90%
[17]; dosage 20 g/ha
  Post-emergence action against ECHCG in %: 80%
[18]; dosage 20 g/ha
  Post-emergence action against MATIN in %: 80%
[19]; dosage 5 g/ha
  Post-emergence action against PHBPU in %: 80%
[19]; dosage 20 g/ha
  Post-emergence action against PHBPU in %: 90%
[22]; dosage 5 g/ha
  Post-emergence action against SETVI in %: 80%
[22]; dosage 20 g/ha
  Post-emergence action against SETVI in %: 90%
[20]; 5 g/ha
  Post-emergence action against VERPE in %: 80%
[20]; 20 g/ha
  Post-emergence action against VERPE in %: 90%
[21]; 5 g/ha
  Post-emergence action against VIOTR in %: 80%
[21]; 20 g/ha
  Post-emergence action against VIOTR in %: 90%
[23]; 5 g/ha
  Post-emergence action against DIGSA in %: 90%
[23]; 20 g/ha
  Post-emergence action against DIGSA: 90%

Reference: patent US12655116B2, “Substituted isophthalic acid diamides” (Bayer Aktiengesellschaft, priority 2020, dated 2026)
